Laboratory results as given in PubChem BioAssay (NCI).
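Results reflect a 48-hour exposure of cells in 96-well plates to compound at five concentrations. The concentration for full growth arrest is given as TGI.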

Key:
Assay in all cases: inhibition of tumour cell growth, NCI panel, 48 h
SF-539 CNS = system: SF-539 CNS
SW-620 colon = system: SW-620 colon
KM12 colon = system: KM12 colon
HCT-15 colon = system: HCT-15 colon
SR leukemia = system: SR leukemia
SK-MEL-5 melanoma = system: SK-MEL-5 melanoma
T-47D breast = system: T-47D breast

SMILES | TGI (SF-539 CNS) [µM] | TGI (SW-620 colon) [µM] | TGI (KM12 colon) [µM] | TGI (HCT-15 colon) [µM] | TGI (SR leukemia) [µM] | TGI (SK-MEL-5 melanoma) [µM] | TGI (T-47D breast) [µM]
O=C1OCC(O)=C1C(c1ccc(Cl)cc1)c1cc2c(cc1O)OCO2 (stereo unspecified) | > 100 | > 100 | > 100 | > 100 | > 100 | > 100 | –
O=S1(=O)NC(=NCc2c[nH]c3ccccc23)N(c2ccccc2)c2ccncc21 | > 100 | > 100 | > 100 | > 100 | – | > 100 | > 100
COc1ccc2c(=O)c(O)c(-c3ccc(OC)c(OC)c3)oc2c1 | – | > 100 | – | > 100 | > 100 | > 100 | > 100
O=C(Cc1cccs1)N[C@@H]1C(=O)N2C(C(=O)OC(c3ccccc3)c3ccccc3)=C(CO)CS[C@H]12 | > 100 | > 100 | > 100 | > 100 | > 100 | > 100 | –
CCCN=C1CCN(Cc2ccccc2)c2ccccc2N1 | – | > 100 | 64.6 | 51.7 | – | 28.2 | –
N=c1n(C(=O)N2CCCC2)c2cc(Cl)ccc2n1C1=NCCN1 | > 100 | > 100 | > 100 | > 100 | > 100 | > 100 | 98.2
CCOC(=O)N1CCC2(CC1)C[C@](C)(C(C)=O)C(C)O2 (stereo partly specified) | > 100 | > 100 | > 100 | > 100 | > 100 | > 100 | –
O=C(O)c1cccc2c1/C(=N/Nc1ccccc1)CC2 | > 100 | > 100 | > 100 | > 100 | > 100 | > 100 | > 100
COc1ccc(C2c3cc4c(cc3OC(NNS(=O)(=O)c3ccc(C)cc3)C2C)OCO4)cc1 (stereo unspecified) | > 100 | > 100 | > 100 | > 100 | 69.7 | > 100 | > 100
O=c1[nH][nH]c(=O)n1Cc1ccccc1Cn1c(=O)[nH][nH]c1=O | > 100 | > 100 | > 100 | > 100 | – | > 100 | > 100
Oc1ccc(-c2nc(-c3cccnc3)c(-c3ccc(F)cc3)[nH]2)cc1 | – | 35.5 | 33.2 | 64.5 | 85 | 33.8 | 43.8
CC1=CC2C(O1)C1C(=O)C=CC(=O)C1=CC2[N+](=O)[O-] (stereo unspecified) | 96.5 | > 24.3 | > 55.9 | 39.6 | – | 38.2 | > 29.2
Cc1ccc(SCC(CSCCO)OCn2cnc3c2NC(N)=NC32OCCO2)cc1 (stereo unspecified) | > 100 | > 100 | – | > 100 | > 100 | > 100 | > 100
O=C(NNC(=O)c1ccccc1SSc1ccccc1C(=O)NNC(=O)c1ccccc1S)c1ccccc1S | > 53.9 | > 100 | > 100 | 61.5 | > 75.3 | > 100 | > 27.8
O=c1[nH]cc(N=Cc2cc(Cl)cc(Cl)c2O)c(=O)[nH]1 | 43.6 | – | 85 | > 100 | 57.1 | 42.6 | 66.2
COc1ccc(C(OCC2OC(n3cc(C)c(=O)[nH]c3=O)CC2n2cc(Cn3cc(I)c(=O)[nH]c3=O)nn2)(c2ccccc2)c2ccccc2)cc1 (stereo unspecified) | > 100 | > 100 | > 100 | > 100 | > 100 | > 100 | > 100
CCOc1cc2c(cc1O)/C(=N\OC)C[C@@H]1[C@@H]2CC[C@]2(C)[C@@H](O)CC[C@@H]12 | – | > 35.3 | 7.63 | 16.1 | 0.0585 | 12.6 | –
Cc1nc(C(N)=S)sc1/C(CC(=O)C(=O)Nc1cccc2ccc(O)cc12)=N\NC(=O)c1ccncc1 | > 100 | > 100 | > 100 | > 100 | – | > 100 | –
COc1cc([C@@H]2c3cc4c(cc3[C@@H](Nc3ccc([N+](=O)[O-])cc3C(=O)c3ccccc3)[C@H]3COC(=O)[C@H]23)OCO4)cc(OC)c1OC | 0.502 | > 100 | > 100 | – | > 100 | – | > 100
COc1cc2c(cc1OC)C(c1ccccc1CCCCl)=NCC2 | > 100 | > 100 | > 100 | > 100 | – | 47.2 | > 100
C[C@@]12C[C@@H](c3ccccc3O1)N1CCCCSC1=N2 | > 100 | > 100 | > 100 | > 100 | > 100 | > 100 | > 100
O=C(CCC(=O)c1ccc(Cl)cc1)NO | > 100 | > 100 | > 100 | > 100 | > 100 | > 100 | > 100
COC(=O)c1cc2c(n1S(=O)(=O)c1ccc(C)cc1)C(=O)C(=O)c1[nH]cc(C(=O)OCc3ccccc3)c1-2 | 0.311 | 0.174 | 0.563 | 0.256 | 0.802 | 0.064 | 0.975
CC(C)C1/C(=N/O)CC(c2ccccc2)N(N=O)C1c1ccccc1 (stereo unspecified) | > 100 | > 100 | > 100 | > 100 | – | 95.9 | 96.2
CC[C@@]1(O)C(=O)OCc2c1cc1n(c2=O)Cc2c-1nc1ccccc1c2/C=N\NC(=O)CN | 0.127 | > 100 | > 100 | > 100 | 0.464 | 1.88 | > 20.3
O=[N+]([O-])/C(C(Cl)=C(Cl)Cl)=C(\SCc1ccccc1)N1CCCCC1 | 46 | – | 87.1 | 49.7 | > 100 | 31.4 | 51.1
O=C1C(=Cc2ccc(O)cc2)N=C(c2ccccc2)N1n1c(-c2ccccc2)nc2ccccc2c1=O | > 100 | > 100 | > 100 | > 100 | – | > 100 | > 100
c1ccc(N=C2SC3=Nc4cccc5cccc(c45)N3C2=Nc2ccccc2)cc1 | – | – | > 100 | > 100 | > 100 | > 100 | > 100
Clc1ccc(/C=C/c2nc3ccccc3s2)cc1Cl | > 100 | – | > 100 | > 100 | > 100 | > 100 | 9.77
COC(=O)[C@H]1CO[C@@H](C(C)(C)C)N1C(=O)N1C=CC(=O)C[C@@H]1C | – | > 100 | > 100 | – | > 100 | > 100 | > 100
